Laboratory results from the NIST ThermoML archive (doi:10.1021/je4004806).

Key:
[1] = 101 kPa, Liquid; for viscosity: Capillary tube (Ostwald / Ubbelohde) method; for mass density: Vibrating tube method
[2] = xn = mol fraction of the nth substance listed; conditions: 101 kPa, Liquid; for viscosity: Capillary tube (Ostwald / Ubbelohde) method; for mass density: Vibrating tube method

CCCCO [butan-1-ol]
[1]
Conditions	mass density [kg/m3]	viscosity [mPa·s]
293.15 K	809.53	2.968
298.15 K	805.7	2.602
303.15 K	801.86	2.292
308.15 K	797.99	2.025
313.15 K	794.1	1.796
318.15 K	790.18	1.59
323.15 K	786.21	1.414

CCCCO [butan-1-ol] + CCCCCCCC
[2], x2 = 0
Conditions	mass density [kg/m3]	viscosity [mPa·s]
293.15 K	809.53	2.968
298.15 K	805.7	2.602
303.15 K	801.86	2.292
308.15 K	797.99	2.025
313.15 K	794.1	1.796
318.15 K	790.18	1.59
323.15 K	786.21	1.414

CCO [ethanol]
[1]
Conditions	mass density [kg/m3]
293.15 K	790.91
298.15 K	786.6
303.15 K	782.28
308.15 K	777.94
313.15 K	773.56
318.15 K	769.15
323.15 K	764.69

CCO [ethanol] + CCCCCCCC
[2], x2 = 0
Conditions	mass density [kg/m3]
293.15 K	790.91
298.15 K	786.6
303.15 K	782.28
308.15 K	777.94
313.15 K	773.56
318.15 K	769.15
323.15 K	764.69

CCCCCCCC [octane]
[1]
Conditions	mass density [kg/m3]	viscosity [mPa·s]
293.15 K	702.54	0.545
298.15 K	698.49	0.513
303.15 K	694.44	0.485
308.15 K	690.37	0.459
313.15 K	686.29	0.433
318.15 K	682.19	0.412
323.15 K	678.08	0.392

CCCCCCCC [octane] + CCCCCO
[2], x1 = 1
Conditions	mass density [kg/m3]	viscosity [mPa·s]
293.15 K	702.54	0.545
298.15 K	698.49	0.513
303.15 K	694.44	0.485
308.15 K	690.37	0.459
313.15 K	686.29	0.433
318.15 K	682.19	0.412
323.15 K	678.08	0.392

CCCCCCCC [octane] + CCO
mass density [kg/m3], [2]
Conditions	x1 = 0.1008	x1 = 0.2015	x1 = 0.2998	x1 = 0.4008	x1 = 0.4663	x1 = 0.6008	x1 = 0.6991	x1 = 0.7931	x1 = 0.9031	x1 = 1
293.15 K	766.88	750.57	738.83	729.83	724.97	716.77	712.03	708.31	704.73	702.54
298.15 K	762.56	746.27	734.53	725.55	720.68	712.52	707.81	704.12	700.59	698.49
303.15 K	758.23	741.94	730.2	721.22	716.37	708.23	703.55	699.9	696.43	694.44
308.15 K	753.87	737.57	725.83	716.86	712.02	703.91	699.27	695.65	692.24	690.37
313.15 K	749.47	733.15	721.42	712.46	707.63	699.56	694.94	691.37	688.03	686.29
318.15 K	745.03	728.69	716.96	708	703.19	695.15	690.58	687.05	683.78	682.19
323.15 K	740.54	724.18	712.45	703.5	698.69	690.7	686.17	682.7	679.51	678.08

CCCCCO [pentan-1-ol]
[1]
Conditions	mass density [kg/m3]	viscosity [mPa·s]
293.15 K	814.59	4.042
298.15 K	810.93	3.518
303.15 K	807.24	3.06
308.15 K	803.53	2.659
313.15 K	799.79	2.334
318.15 K	796.03	2.042
323.15 K	792.23	1.805

CCCO [propan-1-ol]
[1]
Conditions	mass density [kg/m3]	viscosity [mPa·s]
293.15 K	803.84	2.21
298.15 K	799.85	1.962
303.15 K	795.81	1.746
308.15 K	791.74	1.556
313.15 K	787.64	1.386
318.15 K	783.55	1.242
323.15 K	779.32	1.115

CCCO [propan-1-ol] + CCCCCCCC
[2], x2 = 0
Conditions	mass density [kg/m3]	viscosity [mPa·s]
293.15 K	803.84	2.21
298.15 K	799.85	1.962
303.15 K	795.81	1.746
308.15 K	791.74	1.556
313.15 K	787.64	1.386
318.15 K	783.55	1.242
323.15 K	779.32	1.115
